This passage reports IC50 results from PMC11286508, “Repurposing pexmetinib as an inhibitor of TKI-resistant BCR::ABL1” (Leukemia, 2024).

For assay [1], the system named is T1, BCR::ABL1 (Ba/F3 isogenic cells).
T1 construct: BCR::ABL1 fusion oncoprotein, one polypeptide (BCR N-terminal, ABL1 C-terminal); expressed in murine Ba/F3 cells by electroporation; with Breakpoint cluster region protein
As to the kind of experiment: Ba/F3 MTS viability assay. Type of assay: cell-based. The following applies: growth of BCR::ABL1-dependent Ba/F3 cells; parental Ba/F3 + IL-3 as control. On the technique in general: Tetrazolium assays rely on reduction of a dye to a coloured formazan, in cell work by metabolically active cells.

Assay [2] shares this test system. Nature of the assay: Ba/F3 MTS viability assay. Type of assay: cell-based. The following applies: growth of BCR::ABL1-dependent Ba/F3 cells; stated gain.

Broadly, the IC50 is the midpoint of a concentration-inhibition curve. As for `Cc1ccc(-n2nc(C(C)(C)C)cc2NC(=O)NCc2cc(F)ccc2Oc2ccc3c(cnn3CCO)c2)cc1` [pexmetinib], the IC50 in assay [1] was found to be 0.411 µM; in assay [2], 2.099 µM.
